Data from patent US11117866B2, “Terpineol and preparation method and application thereof” (priority 2016, dated 2021).
Where two headings read alike, the source gives them in different places.

Tests used:
[1] = tested on: Isolated tracheal strip (trachea smooth muscle); experiment: Isolated tracheal strip relaxation (diastolic rate) after acetylcholine chloride contraction; conditions: read-out: Relaxation rate %
Procedure: Method: Isolated tracheal strip was fabricated, and was placed in the in-vitro tracheal experiment device; 100 μL acetylcholine chloride was added following tension adjustment and balancing to make the trachea extract, and the tension of trachea was increased. Once the tension was increased to the maximum value, and became balanced, corresponding trial drug was fed to inhibit extraction of the trachea; isometric muscle tension variation curve was recorded, and diastolic rate of smooth muscle was calculated. Diastolic rate=(tension after radiography−tension after dosing)/(tension after radiography)*100%.

Rat asthma model = experiment: Rat asthma model, nucleated (inflammatory) cell count in bronchi alveolar lavage fluid (BALF); type: in vivo; conditions: BALF total nucleated cells, model group 182.50 ± 24.52, blank group 85.50 ± 18.70
Excerpt: Rat asthma model was established, and proceeded with blunt dissection of trachea following the last feeding of drug for trachea alveolar washing. Bronchi alveolar lavage fluid (BALF) was collected, and total number of nucleated cells were counted.

Rat PAH model = experiment: Monocrotaline incurred pulmonary hypertension in rats, right ventricular systolic pressure; type: in vivo; conditions: 200 mg/Kg daily, 30th day, right cardiac catheterization, x ± s, model group 43.78 ± 2.14, normal group 21.08 ± 2.13
Procedure: Method: Rat PAH model was established, and normal saline was fed to contrast group with volume equivalent to that for injection. Drug for interference was fed 2 days after radiography. 200 mg/Kg per compound was fed on daily basis. Normal saline was used with equivalent volume for lavage to the contrast group and model group respectively. Right ventricular systolic pressure of rat was measured by means of Right cardiac catheterization at anesthesia state on the 30th day.

isolated atria = conditions: guinea pig; cited from earlier work
tracheal smooth muscle = conditions: guinea pig, cited from earlier work
[2] = 0.75 mmol/L, isolated tracheal strip contracted with acetylcholine chloride
[3] = 1.25 mmol/L, isolated tracheal strip contracted with acetylcholine chloride

SMILES | inhibition at 750 µM [1, 2] [%] | inhibition at 1250 µM [1, 3] [%] | Inflammatory cell (Rat asthma model) | RVSP (Rat PAH model) | inhibition at 750 µM [1] [%] | inhibition at 1250 µM [1] [%] | effect on isolated atria (isolated atria) | cAMP content in the tracheal smooth muscle (tracheal smooth muscle) | air passage relaxation (tracheal smooth muscle; in vivo experiment and experiment in vitro)
CCCCCCCCCCCCCC(=O)OC(C)(C)C1CC=C(C)CC1 (stereo not drawn) [A] | 17.6 ± 2.89 | 16.6 ± 14.5 | 139.50 ± 31.24^Δ × 10^8/L | 35.07 ± 2.81 mmHg | – | – | – | – | –
Cn1c(=O)c2[nH]cnc2n(C)c1=O [Aminophylline, reference compound] | 43.7 ± 10.2 | 56.7 ± 9.26 | – | – | – | – | – | – | –
CCCCCCCCCCCCCCCCCC(=O)OC(C)(C)C1CC=C(C)CC1 (stereo not drawn) [B] | 15.4 ± 9.83 | 10.6 ± 13.8 | 134.50 ± 25.27^Δ × 10^8/L | 36.08 ± 2.01 mmHg | – | – | – | – | –
CC1=CCC(C(C)(C)OC(=O)CN(C)CCO)CC1 (stereo not drawn) [C] | 50.2 ± 7.3 | 76.8 ± 7.7 | 77.50 ± 68.81 × 10^8/L | 22.33 ± 1.03^ΔΔ## mmHg | – | – | – | – | –
CC1=CCC(C(C)(C)OC(=O)CN2CCOCC2)CC1 (stereo not drawn) [D] | 36.6 ± 13.8 | 59.4 ± 14.7 | 110.5 ± 16.21 × 10^8/L | 32.04 ± 1.12^Δ mmHg | – | – | – | – | –
CC1=CCC(C(C)(C)OC(=O)CO[N+](=O)[O-])CC1 (stereo not drawn) [E] | – | – | 139.50 ± 20.71^Δ × 10^8/L | 35.53 ± 3.02 mmHg | 17.1 ± 6.98 | 10.8 ± 4.46 | – | – | –
CCN(CC)CC(=O)OC(C)(C)C1CC=C(C)CC1 (stereo not drawn) [F] | 42.3 ± 10.4 | 46.7 ± 3.56 | 101.50 ± 14.68 × 10^8/L | 23.35 ± 1.04^ΔΔ## mmHg | – | – | – | – | –
CC1=CCC(C(C)(C)OC(=O)CSCCO)CC1 (stereo not drawn) [G] | 48.3 ± 9.36 | 81.1 ± 10.2 | 76.00 ± 18.15 × 10^8/L | 21.08 ± 1.31^ΔΔ# mmHg | – | – | – | – | –
CC1=CCC(C(C)(C)OC(=O)CN2CCC(=O)CC2)CC1 (stereo not drawn) [H] | 20.9 ± 7.55 | 43.8 ± 10.2 | 123.00 ± 17.23 × 10^8/L | 30.33 ± 2.03^Δ mmHg | – | – | – | – | –
CC1=CCC(C(C)(C)OC(=O)CN2CCC(O)CC2)CC1 (stereo not drawn) [J] | 35.2 ± 13.9 | 71.5 ± 15.4 | 99.50 ± 21.23 × 10^8/L | 27.06 ± 1.17^Δ mmHg | – | – | – | – | –
CC1=CCC(C(C)(C)OC(=O)CN2CCCCC2)CC1 (stereo not drawn) [L] | 42.5 ± 6.14 | 52.2 ± 6.98 | 110.50 ± 16.18 × 10^8/L | 25.36 ± 1.17^ΔΔ# mmHg | – | – | – | – | –
CC1=CCC(C(C)(C)OC(=O)CN(CCO)CCO)CC1 (stereo not drawn) [M] | 27.7 ± 2.08 | 61 ± 5.07 | 97.50 ± 13.11 × 10^8/L | 33.36 ± 2.05^Δ mmHg | – | – | – | – | –
CC1CCC(C(C)(C)O)CC1 (stereo not drawn) [N] | 27.2 ± 14.1 | 41.3 ± 13.2 | 140.00 ± 26.21^Δ × 10^8/L | 32.56 ± 2.82^Δ mmHg | – | – | – | – | –
CC1=CCC(C(C)(C)O)CC1 (stereo not drawn) [α-T, α,α,4-Trimethylcyclohex-3-en-1-methanol, reference compound] | 28.4 ± 16.1 | 38.4 ± 13.6 | 113.00 ± 21.27 × 10^8/L | 33.03 ± 2.22^Δ mmHg | – | – | inhibiting effect | increase cAMP content | available for air passage relaxation
